# Laboratory results taken from publication PMC7044277 (Nature Communications, 2020).
# Where “and” joins values, the source holds several entries; their conditions need not be identical. Equal entries are not always repeated.
# Key:
# 5HT1A = target: T1, 5HT1A (Homo sapiens, UniProt P08908); test: β-arrestin2 recruitment (Tango); type: cell-based; conditions: Fig_S10f, single replicates
# T1 construct: expressed in transfected cells; host or cells: HTLA cells expressing TEV-fused β-arrestin2
# T1 sequence (P08908 1-422): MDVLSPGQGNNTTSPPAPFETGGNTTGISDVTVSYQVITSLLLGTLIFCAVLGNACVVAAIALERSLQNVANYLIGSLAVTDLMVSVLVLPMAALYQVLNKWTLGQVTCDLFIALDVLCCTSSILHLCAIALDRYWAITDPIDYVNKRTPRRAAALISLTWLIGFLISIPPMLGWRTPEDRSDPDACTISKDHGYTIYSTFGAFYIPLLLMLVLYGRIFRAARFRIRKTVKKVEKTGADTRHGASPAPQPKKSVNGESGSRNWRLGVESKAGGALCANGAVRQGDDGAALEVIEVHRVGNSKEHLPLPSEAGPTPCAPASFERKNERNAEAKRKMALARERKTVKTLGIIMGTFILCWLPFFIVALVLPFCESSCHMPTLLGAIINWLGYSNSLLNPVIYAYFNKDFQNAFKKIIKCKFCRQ
# 5HT1F = target: T2, 5HT1F (Homo sapiens, UniProt P30939); test: β-arrestin2 recruitment (Tango); type: cell-based; conditions: for β-arrestin2 recruitment response, agonist mode (single replicate values): Fig_S10j; for Fig_S10j dose-response, drug alone (agonist mode), β-arrestin2 recruitment: single replicate values
# T2 construct: expressed in transfected cells; host or cells: HTLA cells expressing TEV-fused β-arrestin2
# T2 sequence (P30939 1-366): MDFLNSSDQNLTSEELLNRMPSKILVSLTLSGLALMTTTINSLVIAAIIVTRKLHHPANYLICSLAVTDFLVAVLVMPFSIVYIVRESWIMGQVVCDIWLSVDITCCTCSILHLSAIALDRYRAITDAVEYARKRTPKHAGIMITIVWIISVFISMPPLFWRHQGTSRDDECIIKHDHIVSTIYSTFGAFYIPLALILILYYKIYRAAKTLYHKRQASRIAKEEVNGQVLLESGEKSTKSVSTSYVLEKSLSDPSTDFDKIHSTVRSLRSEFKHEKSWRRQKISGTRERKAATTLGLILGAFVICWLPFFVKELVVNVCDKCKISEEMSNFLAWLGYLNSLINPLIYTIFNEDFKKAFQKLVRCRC
# DRD2 F1103.28L = target: T3, DRD2 F1103.28L (Homo sapiens, UniProt P14416, F110L); test: β-arrestin2 recruitment (Tango), mutant; type: cell-based
# T3 construct: expressed in transfected cells; host or cells: HEK293T (ATCC CRL-11268)
# 320 non-olfactory GPCRs = type: cell-based; conditions: compound at 1 μM
# [1] = test system: serotonin receptor of Fig_S10h (subtype not given); test: β-arrestin2 recruitment (Tango), agonist activity, source data Fig_S10h; type: cell-based, human; conditions: drug alone
# T3 sequence (P14416 whole entry F110L): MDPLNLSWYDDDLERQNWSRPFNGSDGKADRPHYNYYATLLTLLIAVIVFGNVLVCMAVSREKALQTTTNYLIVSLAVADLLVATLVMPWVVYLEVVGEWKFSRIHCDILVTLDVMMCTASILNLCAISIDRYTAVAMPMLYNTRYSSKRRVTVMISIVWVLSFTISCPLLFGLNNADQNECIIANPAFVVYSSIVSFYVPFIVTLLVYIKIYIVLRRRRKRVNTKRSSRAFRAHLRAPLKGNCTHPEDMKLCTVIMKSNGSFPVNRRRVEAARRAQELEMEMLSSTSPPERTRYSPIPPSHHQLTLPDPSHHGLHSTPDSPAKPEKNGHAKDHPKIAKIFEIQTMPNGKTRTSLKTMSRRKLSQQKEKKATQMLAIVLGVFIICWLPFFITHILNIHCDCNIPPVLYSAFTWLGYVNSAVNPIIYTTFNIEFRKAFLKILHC
structure (smiles),measurement,setting,value
CCOc1cccc2cc([C@@H](C)NCC3(O)CCCCC3)oc12 [O4RE6],"β-arrestin2 recruitment response, agonist mode (normalized)",5HT1A; Log[Drug] -11.52,1.8254 and -0.1796 and 0.1546 and 0.208 and -0.007582 and -0.4495 and -0.8035 and 0.7362 and -0.4065
same,"β-arrestin2 recruitment response, agonist mode (normalized)",5HT1A; Log[Drug] -12,-0.1713 and 0.3383 and -0.1671 and 0.2155 and 0.391 and -0.6055 and 0.7554 and -0.4001 and 0.1248
same,"β-arrestin2 recruitment response, agonist mode (single replicate values)",5HT1F; Log[Drug] -8,-0.9904 and 0.5932 and 0.4069 and -0.749 and -2.5023 and -1.954 and -1.184 and -1.248 and -0.2773
same,"β-arrestin2 recruitment response, agonist mode (single replicate values)",5HT1F; Log[Drug] -8.52,0.3187 and 0.8997 and 1.294 and 0.7694 and -1.144 and -0.1941 and 0.6567 and 0.7348 and -0.5451
same,"β-arrestin2 recruitment response, agonist mode (single replicate values)",5HT1F; Log[Drug] -9,0.2574 and -0.174 and 0.01716 and -1.454 and -1.951 and -2.373 and 1.634 and -1.575 and -0.4734
same,"β-arrestin2 recruitment response, agonist mode (single replicate values)",5HT1F; Log[Drug] -9.52,-0.956 and -0.4682 and 0.01716 and 8.249 and -1.726 and -1.835 and -1.503 and -0.6631 and 0.5435
same,"β-arrestin2 recruitment response, agonist mode (single replicate values)",5HT1F; Log[Drug] -10,2.1842 and 2.2749 and -0.3922 and 0.1736 and 1.58 and -1.964 and -1.621 and -1.4329 and 0.0271
same,"β-arrestin2 recruitment response, agonist mode (single replicate values)",5HT1F; Log[Drug] -10.52,0.6104 and 0.6079 and -0.2672 and -0.6094 and -0.8784 and -1.423 and 0.2215 and -0.4766 and -0.1562
same,"β-arrestin2 recruitment response, agonist mode (single replicate values)",5HT1F; Log[Drug] -11,-0.2991 and -0.7746 and -0.956 and -0.1975 and -1.559 and -1.001 and -0.7953 and -1.428 and -1.442
same,"β-arrestin2 recruitment response, agonist mode (single replicate values)",5HT1F; Log[Drug] -11.52,9.046 and 4.9 and 0.09315 and 0.6026 and -0.4766 and -1.413 and -2.451 and -1.372 and 1.5094
same,"β-arrestin2 recruitment response, agonist mode (single replicate values)",5HT1F; Log[Drug] -12,-1.25 and -0.8555 and 2.1082 and 1.035 and 1.318 and -2.3525 and 0.1164 and 0.6822 and -0.7969
same,"Fig_S10j dose-response, drug alone (agonist mode), β-arrestin2 recruitment",5HT1F; Log[Drug] -5,1.292 and 2.037 and 1.765 and 2.135 and 0.1634 and 3.054 and 1.165 and -0.4495 and -0.04941
same,"Fig_S10j dose-response, drug alone (agonist mode), β-arrestin2 recruitment",5HT1F; Log[Drug] -5.52,-0.7085 and 0.2942 and 0.1765 and 0.7149 and -0.06809 and -1.164 and 0.2965 and -1.31 and 0.1036
same,"Fig_S10j dose-response, drug alone (agonist mode), β-arrestin2 recruitment",5HT1F; Log[Drug] -6,-1.684 and 5.405 and 2.934 and -0.3268 and -0.4664 and -1.437 and 0.7141 and -1.815 and -1.243
same,"Fig_S10j dose-response, drug alone (agonist mode), β-arrestin2 recruitment",5HT1F; Log[Drug] -6.52,1.461 and 1.956 and 0.6766 and -2.305 and -1.43 and 2.938 and -0.4511 and -1.052 and 1.639
same,"Fig_S10j dose-response, drug alone (agonist mode), β-arrestin2 recruitment",5HT1F; Log[Drug] -7,-0.5859 and 0.3873 and 1.292 and -1.294 and -0.606 and 1.008 and -0.03666 and -1.56 and -1.246
same,"Fig_S10j dose-response, drug alone (agonist mode), β-arrestin2 recruitment",5HT1F; Log[Drug] -7.52,-0.7844 and 5.5181 and -0.1961 and 0.48 and -1.147 and -0.875 and -0.2471 and -0.4702 and -1.368
same,EC50,DRD2 F1103.28L,215 nM
same,Emax,DRD2 F1103.28L; read-out: Emax relative to quinpirole response,7.76%
same,agonism across 320 nonolfactory GPCRs,320 non-olfactory GPCRs,agonist efficacy at DRD2 and DRD3
same,"response, single replicates of the concentration-response curve",[1]; Log[Drug] -6.52,15.4121
same,"response, single replicates of the concentration-response curve",[1]; Log[Drug] -7,-9.449 and 43.8621 and 11.6211 and 7.472 and -0.3671 and 7.014 and 9.027 and 5.062 and -2.318
same,"response, single replicates of the concentration-response curve",[1]; Log[Drug] -7.52,25.9192 and 27.8404 and -0.5503 and -21.2455 and 4.046 and 14.5317 and -8.748 and -4.947 and 16.7319
same,"response, single replicates of the concentration-response curve",[1]; Log[Drug] -8,2.165 and -8.081 and -1.811 and 5.963 and -1.683 and -1.147 and 3.049 and 7.499 and 13.7356
same,"response, single replicates of the concentration-response curve",[1]; Log[Drug] -8.52,-5.579 and -1.044 and 8.071 and 25.4179 and -14.3504 and -12.3048 and 9.427 and 1.454 and -6.523
same,"response, single replicates of the concentration-response curve",[1]; Log[Drug] -9,17.8788 and 11.459 and -7.1 and 19.8102 and 1.922 and -5.946 and -1.184 and 8.604 and 6.934
same,"response, single replicates of the concentration-response curve",[1]; Log[Drug] -9.52,-10.7926 and -6.0806 and -1.59 and 6.349 and 24.5524 and -6.94 and -0.1308 and 12.3434 and 15.3584
same,"response, single replicates of the concentration-response curve",[1]; Log[Drug] -10,15.7757 and 1.351 and 2.221 and 21.6342 and 13.8951 and -8.936 and 0.1938 and 1.6143 and 8.83
same,"response, single replicates of the concentration-response curve",[1]; Log[Drug] -10.52,10.0241 and -11.69 and 6.115 and -3.242 and -2.048 and 6.485 and 2.339 and 5.815 and 3.938
same,"response, single replicates of the concentration-response curve",[1]; Log[Drug] -11,9.617 and 2.873 and 5.027 and 13.6018 and -3.471 and 16.985 and 36.4073 and 2.626 and 1.374
same,"response, single replicates of the concentration-response curve",[1]; Log[Drug] -11.52,17.0328 and 12.1627 and -8.18 and -20.709 and -16.6678 and 9.0957 and -0.3236 and 13.7874 and 20.984
same,"response, single replicates of the concentration-response curve",[1]; Log[Drug] -12,-3.669 and 13.7874 and -0.578 and 18.9662 and 35.9393 and -1.197 and 0.5748 and 17.3951 and 3.035
